# Legend:
# Assay in all cases: relative viability (nuclei count vs DMSO), 5 days (fraction); higher = more cells survive
# XMD13-2 + Luminespib = compound: C1CC1C(=O)NC2=NNC3=C2C=CC(=C3)C4=CC(=CC=C4)C(=O)NC5CC5 [XMD13-2] + CCNC(=O)c1noc(-c2cc(C(C)C)c(O)cc2O)c1-c1ccc(CN2CCOCC2)cc1 [Luminespib] (partner 0.01 µM)
# Procedure, shortened: (§1)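 Relative viability is defined as nuclei in treated wells over nuclei in vehicle wells. Duplicate plates were run and medians reported. Lung cancer cell lines in 1536-well plates were dosed by pin tool one day after seeding, with one drug or with a fixed anchor-drug dose plus five library-drug doses (not always all listed) in √10 steps, and nuclei were counted after 5 days.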
# ALW-II-49-7 + Lapatinib = compound: Cc1ccc(C(=O)Nc2cccc(C(F)(F)F)c2)cc1Nc1cncc(C(N)=O)c1 [ALW-II-49-7] + CS(=O)(=O)CCNCc1ccc(-c2ccc3ncnc(Nc4ccc(OCc5cccc(F)c5)c(Cl)c4)c3c2)o1 [Lapatinib] (partner 2 µM)
# Procedure, shortened: as §1
# Dasatinib + Palbociclib = compound: Cc1nc(Nc2ncc(C(=O)Nc3c(C)cccc3Cl)s2)cc(N2CCN(CCO)CC2)n1 [Dasatinib] + CC(=O)c1c(C)c2cnc(Nc3ccc(N4CCNCC4)cn3)nc2n(C2CCCC2)c1=O [Palbociclib] (partner 0.5 µM)
# Procedure, shortened: as §1
# Dasatinib + Tozasertib = compound: Cc1nc(Nc2ncc(C(=O)Nc3c(C)cccc3Cl)s2)cc(N2CCN(CCO)CC2)n1 [Dasatinib] + Cc1cc(Nc2cc(N3CCN(C)CC3)nc(Sc3ccc(NC(=O)C4CC4)cc3)n2)n[nH]1 [Tozasertib] (partner 0.1 µM)
# Procedure, shortened: as §1
Cell Line,relative viability (XMD13-2 + Luminespib; first compound 0.05 µM),relative viability (XMD13-2 + Luminespib; first compound 0.1581 µM),relative viability (XMD13-2 + Luminespib; first compound 0.5 µM),relative viability (XMD13-2 + Luminespib; first compound 1.581 µM),relative viability (XMD13-2 + Luminespib; first compound 5 µM),relative viability (ALW-II-49-7 + Lapatinib; first compound 0.08 µM),relative viability (ALW-II-49-7 + Lapatinib; first compound 0.253 µM),relative viability (ALW-II-49-7 + Lapatinib; first compound 0.8 µM),relative viability (ALW-II-49-7 + Lapatinib; first compound 2.53 µM),relative viability (ALW-II-49-7 + Lapatinib; first compound 8 µM),relative viability (Dasatinib + Palbociclib; first compound 0.005 µM),relative viability (Dasatinib + Palbociclib; first compound 0.01581 µM),relative viability (Dasatinib + Palbociclib; first compound 0.05 µM),relative viability (Dasatinib + Palbociclib; first compound 0.1581 µM),relative viability (Dasatinib + Palbociclib; first compound 0.5 µM),relative viability (Dasatinib + Tozasertib; first compound 0.005 µM),relative viability (Dasatinib + Tozasertib; first compound 0.01581 µM),relative viability (Dasatinib + Tozasertib; first compound 0.05 µM),relative viability (Dasatinib + Tozasertib; first compound 0.1581 µM),relative viability (Dasatinib + Tozasertib; first compound 0.5 µM)
NCI-H1993,1,0.663,0.833,0.801,1.09,0.663,0.811,0.863,0.825,0.695,0.65,0.623,0.622,0.662,0.373,0.524,0.435,0.563,0.448,0.377
NCI-H661,0.904,0.907,0.904,0.953,0.725,0.47,0.474,0.383,,0.483,0.429,0.412,0.386,0.345,0.282,0.348,0.34,0.324,0.323,0.295
NCI-H520,0.258,0.221,0.226,0.234,0.236,0.666,0.544,,0.627,0.846,0.172,0.156,0.131,0.1,0.119,0.356,0.284,0.294,0.239,0.179
NCI-H2085,0.447,0.494,0.491,0.497,0.423,0.892,0.858,0.718,0.776,0.707,0.495,0.485,0.395,0.191,0.206,0.737,0.641,0.564,0.229,0.214
NCI-H1651,0.969,0.916,0.714,0.773,0.886,0.719,0.879,0.672,0.776,0.794,0.523,0.494,0.514,0.4,0.36,0.679,0.611,0.724,0.522,0.656
RERF-LC-KJ,1.32,1.29,1.22,1.14,1.1,0.867,0.948,0.867,0.941,0.859,1.08,0.994,1.11,0.782,0.81,0.52,0.511,0.44,0.487,0.406
NCI-H1755,0.441,0.502,0.419,0.44,0.433,0.904,1.04,1.04,1.04,0.608,0.438,0.435,0.401,0.322,0.235,0.584,0.532,0.516,0.312,0.21
SK-MES-1,1.06,0.67,0.773,0.711,0.556,0.481,0.458,0.477,0.487,0.474,0.353,0.358,0.269,0.187,0.154,0.972,1.02,0.938,0.556,0.22
NCI-H2126,0.899,0.977,0.957,0.832,0.92,0.603,0.826,0.765,0.737,0.752,0.362,0.347,0.309,0.298,0.285,0.832,0.732,0.773,0.654,0.348
EPLC-272H,0.414,0.125,0.734,0.199,0.124,0.666,0.916,1.07,1.08,0.782,0.31,0.327,0.314,0.296,0.143,0.254,0.282,0.222,0.137,0.122
NCI-H1975,0.169,0.253,0.172,0.197,0.191,0.742,0.835,0.763,0.994,0.87,0.519,0.527,0.482,0.341,0.134,0.692,0.677,0.648,0.377,0.245
NCI-H3122,0.102,0.0949,0.106,0.105,0.0867,1.11,0.92,1.05,1.11,1.05,0.201,0.214,0.207,0.239,0.131,0.38,0.388,0.414,0.373,0.292
COR-L 105,0.867,0.852,0.704,0.749,0.789,0.318,0.372,0.335,0.359,0.416,0.429,0.363,0.368,0.371,0.275,0.375,0.299,0.332,0.228,0.208
BEN,0.53,0.437,0.384,0.246,0.289,0.721,0.814,0.649,,0.629,0.448,0.387,0.43,0.365,0.34,0.516,0.412,0.489,0.415,0.406
NCI-H1915,0.867,0.859,0.833,0.717,0.635,0.949,1.01,0.914,0.848,0.644,0.482,0.438,0.403,0.195,0.163,0.435,0.372,0.301,0.173,0.157
NCI-H650,0.854,0.757,0.854,0.822,0.668,0.843,0.843,0.915,0.841,0.662,0.307,0.326,0.343,0.323,0.261,0.705,0.665,0.755,0.619,0.42

Cell Line,relative viability (XMD13-2 + Luminespib; first compound 0.05 µM),relative viability (XMD13-2 + Luminespib; first compound 0.1581 µM),relative viability (XMD13-2 + Luminespib; first compound 0.5 µM),relative viability (XMD13-2 + Luminespib; first compound 1.581 µM),relative viability (XMD13-2 + Luminespib; first compound 5 µM),relative viability (ALW-II-49-7 + Lapatinib; first compound 0.08 µM),relative viability (ALW-II-49-7 + Lapatinib; first compound 0.253 µM),relative viability (ALW-II-49-7 + Lapatinib; first compound 0.8 µM),relative viability (ALW-II-49-7 + Lapatinib; first compound 2.53 µM),relative viability (ALW-II-49-7 + Lapatinib; first compound 8 µM),relative viability (Dasatinib + Palbociclib; first compound 0.005 µM),relative viability (Dasatinib + Palbociclib; first compound 0.01581 µM),relative viability (Dasatinib + Palbociclib; first compound 0.05 µM),relative viability (Dasatinib + Palbociclib; first compound 0.1581 µM),relative viability (Dasatinib + Palbociclib; first compound 0.5 µM),relative viability (Dasatinib + Tozasertib; first compound 0.005 µM),relative viability (Dasatinib + Tozasertib; first compound 0.01581 µM),relative viability (Dasatinib + Tozasertib; first compound 0.05 µM),relative viability (Dasatinib + Tozasertib; first compound 0.1581 µM),relative viability (Dasatinib + Tozasertib; first compound 0.5 µM)
NCI-H1650,0.187,0.21,0.209,0.19,0.21,0.955,0.846,0.854,1.04,0.753,0.282,0.12,0.184,0.138,0.177,0.356,0.302,0.342,0.233,0.153
NCI-H2009,1.01,1.01,1.01,1.02,1.19,0.913,1.02,0.819,0.728,0.466,0.186,0.137,0.138,0.103,0.101,0.738,0.65,0.679,0.4,0.179
COR-L23,0.883,0.581,0.592,0.769,0.607,0.919,0.656,1.16,1.01,1.08,0.317,0.229,0.229,0.168,0.19,0.199,0.159,0.173,0.119,0.109
NCI-H460,0.0335,0.0365,0.0372,0.0316,0.0324,0.834,0.701,1.03,0.936,0.528,0.14,0.112,0.0827,0.06,0.0635,0.299,0.425,0.302,0.338,0.177
HCC-827,0.809,0.424,0.725,0.576,0.661,0.17,0.237,0.189,0.178,0.175,0.438,0.458,0.419,0.135,0.114,0.457,0.409,0.399,0.177,0.101
NCI-H322M,0.874,0.834,0.804,0.89,1.23,0.592,0.583,0.613,0.635,0.556,0.435,0.382,0.365,0.326,0.228,0.465,0.356,0.289,0.232,0.176
NCI-H1666,1,0.992,0.965,1.03,1.01,0.533,0.674,0.695,0.831,0.652,0.661,0.594,0.637,0.656,0.632,0.632,0.616,0.67,0.565,0.309
NCI-H1793,0.277,,0.168,0.172,0.175,0.811,0.708,0.796,0.787,0.988,0.217,0.279,0.236,0.247,0.231,0.231,0.19,0.181,0.146,0.147
NCI-H1437,1.16,1.14,1.1,1.04,1.19,0.786,0.731,,0.786,0.749,0.353,0.331,0.335,0.302,0.277,0.431,0.38,0.394,0.32,0.314
NCI-H358,0.487,0.202,0.418,0.196,0.321,0.518,0.387,0.423,0.538,0.5,0.144,0.129,0.101,0.0794,0.0791,0.0888,0.0863,0.101,0.084,0.0689
NCI-H1355,0.723,0.726,0.732,0.725,0.759,0.959,1.13,0.97,1.02,0.934,0.36,0.282,0.299,0.244,0.224,0.585,0.421,0.459,0.401,0.347
SK-LU-1,0.217,0.239,0.227,0.194,0.211,0.738,0.984,0.774,,0.607,0.34,0.228,0.241,0.207,0.189,0.272,0.194,0.156,0.101,0.0919
NCI-H2228,0.144,0.218,0.166,0.129,0.178,0.996,0.595,0.984,1.08,0.659,0.73,0.611,0.652,0.364,0.367,0.231,0.232,0.216,0.185,0.184
NCI-H2170,0.506,0.515,0.776,0.55,0.908,0.313,0.284,0.264,0.302,0.302,0.377,0.394,0.397,0.288,0.204,0.698,0.622,0.722,0.564,0.247
NCI-H2347,0.405,0.342,0.486,0.54,0.791,1.11,0.958,1.11,0.85,0.8,0.393,0.438,0.415,0.329,0.224,0.56,0.454,0.363,0.238,0.263
A-427,1.08,0.846,0.94,0.945,0.849,0.988,1.13,1.06,1.07,0.969,0.5,0.507,0.525,0.42,0.394,0.223,0.214,0.176,0.142,0.156

# Reference: the supplement of paper PMC10307832
